The text below walks through data of patent publication US20050037446A1, “Agents that recognize src when phosphorylated at serine 17” (priority 2001, published 2005).

One experiment deals with Rap1. To be noted: NIH3T3 cells, pretreatment; cited from earlier work.
In a further experiment the test system is Raf-1 and Rap1. Put plainly: Association of Raf-1 with His-Rap1 (Ni-NTA pull-down), NIH3T3 cells. It counts as cell-based. The conditions noted are these: Forskolin-stimulated NIH3T3 cells. The protocol: NIH3T3 cells were transfected using Lipofectamine (see EXAMPLE 1) with polyhistidine-tagged Rap1 along with CBR or Cb1-ct (see EXAMPLE 2) as previously described (Schmitt and Stork, Mol. Cell. Biol. 21:3671-83, 2001; Schmitt and Stork, J. Biol. Chem. 275:25342-50,2000). Cells were left untreated or stimulated with Forskolin, as described in EXAMPLE 1. Subsequently, cells were lysed in ice-cold buffer containing 1% NP40, 10 mM Tris, pH 8.0, 20 mM NaCl, 30 mM MgCl2, 1 mM PMSF, and 0.5 mg/ml aprotinin and supernatants prepared by low speed centrifugation. Transfected His-Rap1 proteins were precipitated from supernatants containing equal amounts of protein using Ni-NTA agarose (Qiagen Inc., Chatswoth, Calif.) and washed with 20 mM imidazole in lysis buffer and eluted with 500 mM imidazole and 5 mM EDTA in phosphate-buffered saline. The eluates containing His-Rap1 proteins were separated on SDS-PAGE, blotted onto PVDF membranes, and Raf-1 proteins detected by Western blotting using anti-Raf-1 antibodies (Santa Cruz Biotechnology Inc.).

In the next experiment the test system is Cb1/C3G with Src. Put plainly: Co-immunoprecipitation of Src, Cb1 and C3G, Hek293 cells. It counts as cell-based. How it is done: To examine whether a similar mechanism might underlie signaling from GPCRs, the following methods were used. Hek293 cells were transfected with Flag-tagged SrcWT, SrcS17A, or SrcS17D, using the methods disclosed herein. Cells were treated with 10 μM isoproterenol and equivalent amounts of lysates immunoprecipitated with Flag antibody. The presence of endogenous Cb1 within the eluates was examined by Western blotting. The ability of isoproterenol to induce Rap1-recruitment of B-Raf was blocked by both Cb1-ct and CBR.
Cells were treated with isoproterenol or left untreated and equal amounts of lysates immunoprecipitated with Myc antibody and the presence of endogenous C3G within the eluates examined by Westein blot using the methods disclosed herein.
Equivalent amounts of lysates were immunoprecipitated with Flag antibody and the presence of endogenous C3G within the eluates was examined by Western blots as described herein.

The next experiment relates to Ras. Put plainly: Ras activation affinity assay (GST-Raf1-RBD), Hek293 cells. In kind it is cell-based. The protocol:
Endogenous GTP-loaded Ras was determined using a Ras activation affinity assay as follows. Hek293 cells were grown, stimulated, and lysed as described above. Activated Ras was assayed as previously described (Schmitt and Stork, Mol. Cell. Biol. 21:3671-83, 2001). Briefly, equivalent amounts of lysates from stimulated cells were incubated with GST-Rafl-RBD (Ras-binding domain) as specified by the manufacturer (Upstate Biotechnology, Lake Placid, N.Y.). Proteins were eluted with 2×Laemmli buffer and applied to a 12% SDS polyacrylamide gel. Proteins were transferred to a PVDF membrane, blocked at room temperature for 1 hour in 5% milk and probed with either Ras or Flag antibody overnight at 4° C., followed by an HRP-conjugated anti-mouse secondary. Proteins were detected using enhanced chemiluminescence.
Mutation of tyrosine 527 of Src to phenylanaline (Y527F) produces a constitutively active (oncogenic) Src by eliminating the inhibitory phosphorylation at Y527 (Xu et al. Mol. Cell. 3(5): 629-38, 1999; Brown and Cooper, Biochim. Biophys. Acta 1287(2-3): 121-49, 1996). To determine the effect of this mutant on Ras and Rap1 activation, Hek293 cells were transfected with Flag-tagged Rap1 or Flag-tagged Ras, in the presence or absence of pcDNA3, SrcY527F, SrcS17A/Y527F, SrcS17D/Y527F, CBR, or Cb1-ct using the methods described above. […]

For `O=S(=O)(NCCNC/C=C/c1ccc(Br)cc1)c1cccc2cnccc12` [H89, N-[2(Bromocimamylamino)ethyl]-5-isoquinolinesulfonamide], the “Effect on Forskolin's activation of endogenous Rap1” value in the experiment on Rap1 was “blocked”.

Take `CC(C)(C)n1nc(-c2ccc(Cl)cc2)c2c(N)ncnc21` [PP2, 4-amino-5-(4-chlorophenyl)-7-(t-butyl)pyazolo[3,4-d]pyrimidine]: the “Effect on association between Raf-1 and Rap1” value with Raf-1 and Rap1 is given as “blocked”. Turning to `CC(C)NCC(O)c1ccc(O)c(O)c1` (stereo not shown) [isoproterenol], the “Association between C3G and transfected Cb1” value in the experiment on Cb1/C3G with Src is reported as “induced an association”. Further, the “Activation of endogenous Ras” value in the experiment on Ras is reported as “activated endogenous Ras”.
